Measurements as given in patent US5118681A (priority 1989, dated 1992).
Values after ≈ are worked out from the molar mass of the structure shown.

Columns and labels:
A.p = assay: Minimum Inhibitory Concentration Test, alternate (Table 4), A.p; assay type: cell-based; details: Aureobasidium pullulans, TSB, 72 hours
Protocol: (§1) A 125 μl aliquot of 10,000 ppm test compound in acetone was added to 4.88 ml of TSB to provide a 250 ppm solution. From this solution, 100 μL was transferred to the first row of two microtiter plate columns. Both replicates and five additional compounds were all serially diluted 1:1 to a final concentration of 0.8 ppm in TSB.
(§2) Inoculation was accomplished by diluting a 24 hr Ps fl culture, four mls per 36 mls of phosphate buffer solution. A Dynatech autoinoculator was used to transfer 1.5 μl of this cell suspension to the microtiter plates. The plates were incubated at 30° C. for 3 days before the lowest concentration at which no growth occurs was recorded in the database. The SOK data and MIC test data on Ps.fl, Ps.ae, E.c, and S.a. bacteria and Candida albicans (C.alb), A.n and A.p fungi are listed in Table 4.

[1] = system: Puccinia graminis (f. sp. tritici Race 15B-2); assay: whole plant or invertebrate; assay type: in vivo; details: 336 h, read-out: % control WSR
Ps.ae = assay: Minimum Inhibitory Concentration Test, alternate (Table 4), Ps.ae; assay type: cell-based, Pseudomonas aerugenosa; details: Pseudomonas, TSB, 72 hours
Pseudomonas fluorescens = assay: Minimum Inhibitory Concentration Test, alternate (Table 4), Ps.fl; assay type: cell-based; details: Pseudomonas fluorescens, TSB, 72 hours, 30° C
How it was run: (§3)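 Compound in acetone was diluted into TSB and serially diluted 1:1 from 250 ppm down to 0.8 ppm, in duplicate. Plates were inoculated with diluted 24 h culture and incubated 3 days at 30° C; MIC recorded as lowest concentration with no growth.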

A.n = assay: Minimum Inhibitory Concentration Test, alternate (Table 4), A.n; assay type: cell-based, Aspergillus niger; details: Aspergillus niger, TSB, 72 hours
How it was run: as §3

[2] = system: Pellicularia filamentosa (f. sp. sasiki); assay: whole plant or invertebrate; assay type: in vivo; details: 120 h; read-out: % control RSB
E.c = assay: Minimum Inhibitory Concentration Test, alternate (Table 4), E.c; assay type: cell-based, Escherichia coli; details: Escherichia coli, TSB, 72 hours
Protocol: as §1, §2

Phytophthora infestans = assay: whole plant or invertebrate; assay type: in vivo; details: Phytophthora infestans, in Solanum lycopersicum, 96 h, read-out: % control TLB
S.a = assay: Minimum Inhibitory Concentration Test, alternate (Table 4), S.a; assay type: cell-based, Staphylococcus aureus; details: Staphylococcus aureus, TSB, 72 hours
Protocol: as §1, §2

[3] = system: Erysiphe graminis (f. sp. tritici); assay: whole plant or invertebrate; assay type: in vivo; details: Blumeria graminis; read-out: % control WPM
[4] = system: Pseudoperonospora cubensis; assay: whole plant or invertebrate; assay type: in vivo; details: Pseudoperonospora cubensis, in Cucumis sativus, 168 h; read-out: % control CDM
Candida albicans (C.alb) = assay: Minimum Inhibitory Concentration Test, alternate (Table 4), C.alb; assay type: cell-based; details: Candida albicans, TSB, 72 hours
Protocol: as §1, §2

Piricularia oryzae = assay: whole plant or invertebrate; assay type: in vivo; details: Pyricularia oryzae, read-out: % control RB
[5] = system: Puccinia recondita (f. sp. tritici Races PKB and PLD); assay: whole plant or invertebrate; assay type: in vivo; details: Puccinia recondita, 240 h; read-out: % control WLR

Row | SMILES | MIC (A.p) | MIC (Ps.ae) | MIC (Pseudomonas fluorescens) | MIC (A.n) | MIC (E.c) | MIC (S.a) | MIC (Candida albicans (C.alb)) | pest or weed control at 200 ppm (Phytophthora infestans) | pest or weed control at 200 ppm (Piricularia oryzae) | pest or weed control at 200 ppm [4] | pest or weed control at 100 ppm [2] | pest or weed control at 100 ppm [5] | pest or weed control at 100 ppm (Phytophthora infestans) | pest or weed control at 100 ppm (Piricularia oryzae) | pest or weed control at 100 ppm [3] | pest or weed control at 100 ppm [4] | further results
1 | CCCCCCNC(=O)/C(Cl)=C(/Cl)SC(C(C)=O)C(C)=O [Example 7, N-n-hexyl-2,3-dichloro-cis-3-[3-(2,4-pentanedionyl)thio]acrylamide] | 8 mg/L (≈ 22.6 µM) | 500 mg/L (≈ 1410 µM) | 250 to 500 mg/L (≈ 706 to 1410 µM) | 8 to 63 mg/L (≈ 22.6 to 178 µM) | 125 mg/L (≈ 353 µM) | 125 mg/L (≈ 353 µM) | 31 mg/L (≈ 87.5 µM) |  |  |  |  |  |  |  |  |  | pest or weed control at 300 ppm [1]: 60%; pest or weed control at 300 ppm [2]: 0%; pest or weed control at 300 ppm (Phytophthora infestans): 20%; pest or weed control at 300 ppm [3]: 0%; pest or weed control at 300 ppm [4]: 95%
2 | CCCCCCCCNC(=O)/C=C\SC(C(=O)CC)C(=O)CC [Example 8, N-n-octyl-cis-3-[4-(3,5-heptanedionyl)thio]acrylamide] |  |  | > 500 mg/L | > 500 mg/L |  |  |  | 92% | 95% | 95% |  |  |  |  |  |  | pest or weed control at 200 ppm [1]: 60%; pest or weed control at 200 ppm [2]: 0%; pest or weed control at 200 ppm [3]: 0%
3 | CCCCCCCCNC(=O)/C=C\SC(C(=O)c1ccccc1)C(=O)c1cccn1C (stereo not drawn) [Example 68, N-n-octyl-cis-3-{2-[1-phenyl-3-(1-methylpyrroyl-2-yl)-1,3-propanedionyl]thio}acrylamide] |  |  | > 250 mg/L |  |  |  |  |  |  |  | 0% | 0% | 60% | 80% | 0% |  | pest or weed control at 100 ppm [1]: 0%
4 | CCCCCCCCNC(=O)/C=C\SC(C(C)=O)C(=O)CC (stereo not drawn) [Example 10, N-n-octyl-cis-3-[3-(2,4-hexanedionyl)thio]acrylamide] |  |  | > 500 mg/L | > 500 mg/L |  |  |  | 98% | 95% | 100% |  |  |  |  |  |  | pest or weed control at 200 ppm [1]: 80%; pest or weed control at 200 ppm [2]: 0%; pest or weed control at 200 ppm [3]: 30%
5 | CCCCCCCCNC(=O)/C=C\SC(C(=O)Nc1cccc(C)c1)C(=O)OCC (stereo not drawn) [Example 54, N-n-octyl-cis-3-{2-[ethyl-N-(3-methylphenyl)malonamido]thio}acrylamide] |  |  | > 500 mg/L | > 500 mg/L |  |  |  |  |  |  | 0% | 0% | 80% | 87% | 0% | 97% | pest or weed control at 100 ppm [1]: 0%
6 | CCCCCCCCNC(=O)/C=C\SC(C(=O)c1ccccc1)C(=O)c1ccccc1 [Example 67, N-n-octyl-cis-3-[2-(1,3-diphenyl-1,3-propanedionyl)thio]acrylamide] |  |  |  |  |  |  |  |  |  |  | 0% | 0% | 0% | 90% | 0% |  | pest or weed control at 100 ppm [1]: 0%
7 | CCCCCCCNC(=O)/C=C\SC(C(C)=O)C(C)=O [Example 4, N-n-heptyl-cis-3-[3-(2,4-pentanedionyl)thio]acrylamide] | < 4 mg/L | > 500 mg/L | > 500 mg/L | 16 to 63 mg/L (≈ 53.4 to 210 µM) | > 500 mg/L | 63 mg/L (≈ 210 µM) | < 4 mg/L | 100% | 60% | 98% |  |  |  |  | 0% |  | pest or weed control at 300 ppm [1]: 80%; pest or weed control at 300 ppm [2]: 0%
8 | CCCCCCNC(=O)/C=C\SC(C(C)=O)C(C)=O [Example 5, N-n-hexyl-cis-3-[3-(2,4-pentanedionyl)thio]acrylamide] | < 4 mg/L | > 500 mg/L | > 500 mg/L | 31 to 63 mg/L (≈ 109 to 221 µM) | > 500 mg/L | 63 to 125 mg/L (≈ 221 to 438 µM) | 16 mg/L (≈ 56.1 µM) | 95% | 90% | 100% |  |  |  |  |  |  | pest or weed control at 300 ppm [1]: 70%; pest or weed control at 300 ppm [2]: 0%; pest or weed control at 300 ppm [3]: 0%
9 | CCCCCCCCNC(=O)/C=C\SC(C(=O)Nc1cccc(Cl)c1Cl)C(=O)OCC (stereo not drawn) [Example 35, N-n-octyl-cis-3-{2-[ethyl-N-(2,3-dichlorophenyl)malonamido]thio}acrylamide] | < 2 mg/L | > 250 mg/L | 500 mg/L (≈ 1020 µM) | 8 to 16 mg/L (≈ 16.3 to 32.7 µM) | > 250 mg/L | > 250 mg/L | 4 mg/L (≈ 8.17 µM) |  |  |  | 0% | 50% | 95% | 0% | 0% | 99% | 
10 | CCCCCCCCNC(=O)/C=C\SC(C(=O)NCCCN1CCOCC1)C(=O)OCC (stereo not drawn) [Example 51, N-n-octyl-cis-3-{2-[ethyl-N-(3-(4-morpholino)propyl)malonamido]thio}acrylamide] | < 2 mg/L | > 250 mg/L | > 250 mg/L | < 2 mg/L | > 250 mg/L | 31 mg/L (≈ 65.7 µM) | < 2 mg/L |  |  |  | 0% | 0% | 0% | 0% | 0% | 99% | 
11 | C=CCNC(=O)C(S/C=C\C(=O)NCCCCCCCC)C(=O)OCC (stereo not drawn) [Example 37, N-n-octyl-cis-3-{2-[ethyl-N-(2-propenyl)malonamido]thio}acrylamide] | < 2 mg/L | > 250 mg/L | 500 mg/L (≈ 1300 µM) | 4 to 8 mg/L (≈ 10.4 to 20.8 µM) | > 250 mg/L | 31 mg/L (≈ 80.6 µM) | 8 mg/L (≈ 20.8 µM) |  |  |  | 0% | 75% | 95% | 95% | 50% | 100% | 
12 | CCCCCCCCNC(=O)/C=C\SC(C(C)=O)C(=O)C1CC1 (stereo not drawn) [Example 29, N-n-octyl-cis-3-[2-(1-cyclopropyl-1,3-butanedionyl)thio]acrylamide] | 125 mg/L (≈ 368 µM) | > 500 mg/L | > 500 mg/L | 8 to 31 mg/L (≈ 23.6 to 91.3 µM) | > 500 mg/L | > 500 mg/L | 31 mg/L (≈ 91.3 µM) | 85% | 77% | 95% |  |  |  |  |  |  | pest or weed control at 200 ppm [2]: 0%; pest or weed control at 200 ppm [5]: 0%; pest or weed control at 200 ppm [3]: 0%
13 | CCCCCCCCNC(=O)/C=C\SC(C(=O)Nc1ccc(Cl)cc1Cl)C(=O)OCC (stereo not drawn) [Example 41, N-n-octyl-cis-3-{2-[ethyl-N-(2,4-dichlorophenyl)malonamido]thio}acrylamide] | 8 mg/L (≈ 16.3 µM) | > 500 mg/L | > 500 mg/L | 8 to 31 mg/L (≈ 16.3 to 63.3 µM) | > 500 mg/L | > 500 mg/L | 63 mg/L (≈ 129 µM) |  |  |  | 0% | 0% | 87% | 99% | 50% | 100% | 
14 | CCCCCCCCNC(=O)/C=C\SC1C(=O)CC(C)(C)CC1=O [Example 9, N-n-octyl-cis-3-[2-(5,5-dimethyl-1,3-cyclohexanedionyl)thio]acrylamide] |  |  | > 500 mg/L | > 500 mg/L |  |  |  | 70% | 50% | 99% |  |  |  |  |  |  | pest or weed control at 200 ppm [1]: 60%; pest or weed control at 200 ppm [2]: 0%; pest or weed control at 200 ppm [3]: 0%
15 | CCCCCCCCNC(=O)/C=C\SC(C(=O)Nc1ccccc1OC)C(=O)OCC (stereo not drawn) [Example 53, N-n-octyl-cis-3-{2-[ethyl-N-(2-methoxyphenyl)malonamido]thio}acrylamide] |  |  | > 500 mg/L | 500 mg/L (≈ 1110 µM) |  |  |  |  |  |  | 0% | 0% | 97% | 90% | 0% | 100% | pest or weed control at 100 ppm [1]: 0%
16 | CCCCCCCCNC(=O)/C=C\SC(C(=O)NCCc1ccccn1)C(=O)OCC (stereo not drawn) [Example 66, N-n-octyl-cis-3-{2-[ethyl-N-(2-(2-pyridyl)ethyl)malonamido]thio}acrylamide] | < 2 mg/L | > 250 mg/L | > 250 mg/L | < 2 mg/L | > 250 mg/L | 63 mg/L (≈ 140 µM) | < 2 mg/L |  |  |  | 0% | 0% | 40% | 0% | 0% | 100% | 
